{
  "source": "ChEMBL document CHEMBL1146781",
  "about": "“Structural differences between paroxetine and femoxetine responsible for differential inhibition of Staphylococcus aureus efflux pumps” (2004)",
  "key": {"[1]": {"system": "Staphylococcus aureus", "assay": "Minimum inhibitory concentration (MIC) against Staphylococcus aureus 1199B; Range 50 - 6.3 ug/mL", "type": "functional"}, "[2]": {"system": "Staphylococcus aureus", "assay": "Minimum inhibitory concentration (MIC) against Staphylococcus aureus K2068; Range 12.5 1.6 ug/mL", "type": "functional"}, "[3]": {"system": "Staphylococcus aureus", "assay": "Concentration required to reduce Minimum inhibitory concentration (MIC) of Norfloxacin against Staphylococcus aureus 1199B by 4 folds", "type": "functional, organism-based"}, "[4]": {"system": "Staphylococcus aureus", "assay": "Concentration required to reduce Minimum inhibitory concentration (MIC) of Norfloxacin against Staphylococcus aureus 1199B by 8 folds", "type": "functional, organism-based"}, "[5]": {"system": "Staphylococcus aureus", "assay": "Percent inhibition of EtBr efflux against Staphylococcus aureus 1199B at 50 concentration", "type": "functional"}},
  "data": [
    {"smiles": "CCn1cc(C(=O)O)c(=O)c2cc(F)c(N3CCNCC3)cc21", "note": "[NORFLOXACIN]", "values": [
      {"measurement": "MIC", "setting": "[1]", "result": 50, "unit": "µg/mL"},
      {"measurement": "MIC", "setting": "[2]", "result": 12.5, "unit": "µg/mL"}
    ]},
    {"smiles": "COC(=O)[C@H]1[C@H]2C[C@@H]3c4[nH]c5cc(OC)ccc5c4CCN3C[C@H]2C[C@@H](OC(=O)c2cc(OC)c(OC)c(OC)c2)[C@@H]1OC", "values": [
      {"measurement": "Concentration", "setting": "[3]", "result": 20, "unit": "µg/mL"}
    ]},
    {"smiles": "Fc1ccc([C@@H]2CCNC[C@H]2COc2ccc3c(c2)OCO3)cc1", "values": [
      {"measurement": "Concentration", "setting": "[4]", "result": 25, "unit": "µg/mL"}
    ]},
    {"smiles": "Fc1ccc([C@H]2CCNC[C@@H]2COc2ccc3c(c2)OCO3)cc1", "values": [
      {"measurement": "Concentration", "setting": "[4]", "result": 20, "unit": "µg/mL"}
    ]},
    {"smiles": "CN1CC[C@@H](c2ccc(F)cc2)[C@H](COc2ccc3c(c2)OCO3)C1", "values": [
      {"measurement": "Inhibition", "setting": "[5]", "result": "~50", "unit": "%"}
    ]}
  ]
}
